# Reference: US20060154346A1, “Microorganism producing 5'xanthylic acid” (priority 2002, published 2006)
# Tests used:
# [1] = tested on: Corynebacterium ammoniagenes KCCM 10340; test: Growth of the strain in medium with added oligomycin (resistance test); format: cell-based; parameters: key: +: growth; −: no growth; settings: 30° C. for 5 days
# Excerpt: (§1) The invention relates to Corynebacterium ammoniagenes CJXOL 0201 (KCCM-10447) which is a mutant strain of Corynebacterium ammoniagenes KCCM 10340, producing 5′-xanthylic acid. The CJXOL 0201 is obtained by treating Corynebacterium ammoniagenes KCCM 10340 with UV radiation and mutation derivatives such as N-methy-N′-nitro-n-nitrosoguanidine(NTG) according to ordinary procedure, and selecting a mutant strain among these which can grow in the culture medium (glucose 20 g/L, potassium phosphate monobasic 1 g/L, potassium phosphate dibasic 1 g/L, urea 2 g/L, ammonium sulfate 3 g/L, magnesium sulfate 1 g/L, calcium chloride 100 mg/L, ferrous sulfate 20 mg/L, manganese sulfate 10 mg/L, zinc sulfate 10 mg/L, biotin 30 μg/L, thiamine hydrochloride 0.1 mg/L, copper sulfate 0.8 mg/L, adenine 20 mg/L, guanine 20 mg/L, pH 7.2) which different concentration levels of oligomycin (1,2,5,10,20,50 mg/L) is added into. […] 21, 2002 with accession Number KCCM 10447.
# (§2) According to the Table 1, the microorganism of the invention can grow in the medium which 10 mg/L oligomycin was added into. The medium was: fermented at 30° C. for 5 days.
# [2] = tested on: Corynebacterium ammoniagenes CJXOL 0201; test: as above; format: cell-based; parameters: key to growth of strain: +: growth; −: no growth
# Excerpt: as §1, §2
compound,measurement,setting,value
"CC[C@H]1/C=C/C=C/C[C@@H](C)[C@H](O)[C@@](C)(O)C(=O)[C@@H](C)[C@H](O)[C@@H](C)C(=O)[C@@H](C)[C@H](O)[C@@H](C)/C=C/C(=O)O[C@@H]2[C@H](C)[C@H](CC1)O[C@]1(CC[C@H](C)[C@H](C[C@@H](C)O)O1)[C@H]2C [Oligomycin, oligomycin]",growth of strain,[1]; oligomycin 10 mg/L,+
same,growth of strain,[1]; oligomycin 20 mg/L,−
same,growth of strain,[1]; oligomycin 30 mg/L,−
same,growth of strain,[1]; oligomycin 40 mg/L,−
same,growth of strain,[1]; oligomycin 50 mg/L,−
same,oligomycin concentration up to which resistance (growth) was shown; no growth above,[2]; 0˜50 mg/L oligomycin added into selection medium,up to 20 mg/L
same,growth in medium with oligomycin,"[2]; oligomycin 10 mg/L, 30° C. for 5 days",can grow
same,growth of strain,"[2]; oligomycin 30 mg/L, 30° C. for 5 days",+
same,growth of strain,"[2]; oligomycin 40 mg/L, 30° C. for 5 days",−
same,growth of strain,"[2]; oligomycin 50 mg/L, 30° C. for 5 days",−
